Results on 2 compounds are retold here after ChEMBL document CHEMBL1148526, “Facile purification of honokiol and its antiviral and cytotoxic properties” (J Med Chem, 2006).

Holding throughout (type): functional
For experiment [1], the system named is PBMC. Nature of the experiment: Selectivity index of antiviral vs cytoxic activity in PBM cells (CC50/EC50).
For experiment [2], the system named is PBMC. Nature of the experiment: Cytotoxicity against human PBM cells.
The subject of experiment [3] is Vero. Nature of the experiment: Cytotoxicity against Vero cells. The settings on record: Chlorocebus sabaeus.
In experiment [4] the test system is CCRF-CEM. Nature of the experiment: Cytotoxicity against human CEM cells.

On to `C=CCc1ccc(O)c(-c2ccc(O)c(CC=C)c2)c1` [HONOKIOL], for which the “Ratio CC50/EC50” value in experiment [1] stood at 5. The CC50 in experiment [2] amounted to 16.1 µM; in experiment [3], 22.5 µM; in experiment [4], 10.9 µM.

In the case of `C=CCc1ccc(O)c(-c2cc(CC=C)ccc2O)c1` [MAGNOLOL], the figures for the CC50 in experiment [2], in experiment [3] and in experiment [4] were 38.6 µM, 50.6 µM and 99.5 µM, respectively.

The CC50 is the concentration that lowers cell viability or growth by half.
